Laboratory results published in US20240400606A1, “SMALL MOLECULE ACTIVATORS OF THE IMMUNE SYSTEM” (THE BOARD OF TRUSTEES OF THE UNIVERSITY OF ILLINOIS, priority 2021, published 2024).

Tests used:
SULT2B1b = SULT2B1b (Homo sapiens (Human), UniProt O00204); assay: Coupled chromogenic SULT2B1b inhibition assay; format: biochemical; conditions: for IC50: coupled chromogenic in vitro assay, optimized conditions, mean±s.e.m., n=3
Method: Optimized Coupled Chromogenic SULT2B1b Activity Assay. For 96-well Format: Working concentrations of IMPAD1 (0.1 mg/mL in 1× activity assay buffer), PAPS (1 mM in 1× activity assay buffer), and DHEA (2.5 mM in DMSO) were prepared. Two technical replicates were assayed for each sample. Reaction mixes were prepared by mixing 10 μL PAPS stock solution, 10 μL IMPAD1 stock solution, 4 μL 2.5 mM DHEA or DMSO, and 16 μL activity assay buffer to make […] reaction mix. Amount of reaction mix was scaled accordingly to number of samples assayed. 25 μL of reaction mix was dispensed to each well. SULT2B1b was diluted to 1.5 μg/μL in protein storage buffer then down to 0.8 μg/μL in 1X activity assay buffer. 25 μL of 0.8 μg/μL SULT2B1b was added to each well. The reaction was incubated at 37° C. for 45 minutes, then quenched by addition of 30 μL of malachite green solution A, followed by addition of 30 μL of malachite green solution B. The plate was left at room temperature for 20 minutes for color stabilization, then absorbance was read at 620 nm. IMPAD1 activity control was 10 μL of 0.1 mg/mL IMPAD1 mixed with 40 μL activity assay buffer. 25 μL of the IMPAD1 dilution was added to 25 μL of 0.1 mM PAP.
Coupled Chromogenic SULT2B1b Inhibition Assay. For 96-well Format: Working stock solutions of IMPAD1 (0.1 mg/mL in 1× activity assay buffer), PAPS (1 mM in 1X activity assay buffer), compound of interest (5 mM in DMSO) and DHEA (5 mM in DMSO) were prepared. Two technical replicates were assayed for each sample. […] The reaction was incubated at 37° C. for 45 minutes, then quenched by addition of 30 μL of malachite green solution A, followed by addition of 30 μL of malachite green solution B. The plate was left at room temperature for 20 minutes for color stabilization, then absorbance was read at 620 nm. […]
Percent inhibition was calculated as: 100−[100×[(Phosphate produced per wellaverage,compound of interest−Phosphate produced per wellaverage, DMSO)/(Phosphate produced per wellaverage, DHEA−Phosphate produced per wellaverage, DMSO)]]. […]

T47D cells = assay: Alamar blue cellular cytotoxicity, T47D; format: cell-based; conditions: 72 hours
Method: Alamar Blue Fluorescence for Cellular Activity (IC50). Cells were seeded per well in a 96-well plate (5000 for MCF-7, 4000 for T47D, 7000 for mouse embryonic fibroblasts) and allowed to adhere before DMSO solutions of compounds were added to each well. Final concentration of DMSO in each well is 1%, final volume: 100 μL. At the end of 72 hours, Alamar Blue solution was added (10 μL of 1 mg resazurin per 10 mL PBS). After 2-4 hours incubation, fluorescence (λexcit.=555 nm, λemission.=585 nm) was measured. The fluorescence of each well was read with a SpectraMax M3 plate reader (Molecular Devices). Percent dead was determined by comparison to a 100% dead control: 100 μM Raptinal treated cells.

IMPAD1 = IMPAD1 (Homo sapiens (Human), UniProt Q9NX62); assay: IMPAD1 in vitro activity assay; format: biochemical
IMPAD1, sequence (Q9NX62 whole entry): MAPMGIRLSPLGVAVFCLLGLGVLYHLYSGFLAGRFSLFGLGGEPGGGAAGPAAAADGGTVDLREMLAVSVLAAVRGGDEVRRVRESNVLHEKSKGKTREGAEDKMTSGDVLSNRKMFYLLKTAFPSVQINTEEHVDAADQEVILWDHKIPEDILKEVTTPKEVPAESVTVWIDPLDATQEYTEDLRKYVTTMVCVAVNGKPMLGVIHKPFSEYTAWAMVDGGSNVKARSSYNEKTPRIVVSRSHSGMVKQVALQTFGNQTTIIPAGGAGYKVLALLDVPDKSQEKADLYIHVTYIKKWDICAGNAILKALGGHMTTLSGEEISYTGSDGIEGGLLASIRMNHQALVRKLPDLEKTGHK
Method: IMPAD1 Assay. Working stock solutions of IMPAD1 (0.1 mg/mL in 1× activity assay buffer), adenosine 3′,5′-diphosphate (PAP; dissolved first in DMSO to make stock solution then diluted to 200 μM in 1× assay buffer), and compound of interest in DMSO were prepared. Two technical replicates were assayed for each sample. Reaction mixes were prepared by mixing 6 μL IMPAD1 stock solution, 2.4 μL compound of interest stock or DMSO, 21.6 μL 1× assay buffer to make 30 μL reaction mix. Amount of reaction mix was scaled accordingly to number of samples assayed. 15 μL of reaction mix was dispensed to each well (384-well plate). 15 μL 200 μM PAP stock solution was added to each well. The reaction was incubated at 37° C. for 45 minutes, then quenched by addition of 15 μL of malachite green solution A, followed by addition of 15 μL of malachite green solution B. The plate was left at room temperature for 20 minutes for color stabilization, then absorbance was read at 620 nm. Phosphate standard curve generation was identical to that described under “Optimized Coupled Chromogenic SULT2B1b Activity Assay”, 384-well format. […]
Percent inhibition was calculated as: 100−[100×[(Phosphate produced per wellaverage, compound of interest−Phosphate produced per wellaverage, PAP)/(Phosphate produced per wellaverage, IMPAD1−Phosphate produced per wellaverage, PAP)]].

SULT2B1b, sequence (O00204 whole entry): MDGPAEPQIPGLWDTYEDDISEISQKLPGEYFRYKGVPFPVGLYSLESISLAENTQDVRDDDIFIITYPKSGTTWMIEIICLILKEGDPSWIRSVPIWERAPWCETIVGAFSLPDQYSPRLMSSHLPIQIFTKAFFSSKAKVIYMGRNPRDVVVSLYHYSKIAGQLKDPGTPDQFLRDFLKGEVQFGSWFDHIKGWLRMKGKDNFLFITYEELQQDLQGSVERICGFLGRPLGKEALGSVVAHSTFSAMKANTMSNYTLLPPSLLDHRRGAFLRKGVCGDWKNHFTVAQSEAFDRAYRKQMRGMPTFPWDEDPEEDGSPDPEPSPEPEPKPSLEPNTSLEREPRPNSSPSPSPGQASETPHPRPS

Row | Structure (SMILES) | IC50 (SULT2B1b) [µM] | suitable sub-lethal treatment concentration (T47D cells) [µM] | percent inhibition (SULT2B1b; initial medium throughput screen) [%] | inhibition of IMPAD1 (IMPAD1)
1 | C[C@]12CC[C@H](O)CC1=CC[C@@H]1[C@@H]2CC[C@]2(C)C(n3cnc4ccccc43)=CC[C@@H]12 [Compound 2, Galeterone, reference compound] | 41 ± 7 | – | – | –
2 | C[C@]12CCC(=O)N(Cc3ccc(Br)cc3)C1=CC[C@@H]1[C@@H]2C(=O)C[C@]2(C)C(=O)CC[C@@H]12 [Compound 3, (4aR,4bS,6aS,9aS,9bS)-1-(4-bromobenzyl)-4a,6a-dimethyl-3,4,4a,6,6a,8,9,9a,9b,10-decahydro-1H-indeno[5,4-f]quinoline-2,5,7(4bH)-trione] | – | 6.25 | – | –
3 | C[C@]12CCC(=O)N(Cc3ccc(Cl)cc3)C1=CC[C@@H]1[C@@H]2C(=O)C[C@]2(C)C(=O)CC[C@@H]12 [Compound 1, (4aR,4bS,6aS,9aS,9bS)-1-(4-chlorobenzyl)-4a,6a-dimethyl-3,4,4a,6,6a,8,9,9a,9b,10-decahydro-1H-indeno[5,4-f]quinoline-2,5,7(4bH)-trione] | 34 ± 4 | 6.25 | 48 | does not inhibit
